# Biological target: T1, trehalose phosphorylase (Thermoanaerobacter brockii, UniProt Q8L164)
# T1 construct: recombinant E. coli enzyme (pTTP4) equivalent
# T1 sequence (Q8L164 2-774): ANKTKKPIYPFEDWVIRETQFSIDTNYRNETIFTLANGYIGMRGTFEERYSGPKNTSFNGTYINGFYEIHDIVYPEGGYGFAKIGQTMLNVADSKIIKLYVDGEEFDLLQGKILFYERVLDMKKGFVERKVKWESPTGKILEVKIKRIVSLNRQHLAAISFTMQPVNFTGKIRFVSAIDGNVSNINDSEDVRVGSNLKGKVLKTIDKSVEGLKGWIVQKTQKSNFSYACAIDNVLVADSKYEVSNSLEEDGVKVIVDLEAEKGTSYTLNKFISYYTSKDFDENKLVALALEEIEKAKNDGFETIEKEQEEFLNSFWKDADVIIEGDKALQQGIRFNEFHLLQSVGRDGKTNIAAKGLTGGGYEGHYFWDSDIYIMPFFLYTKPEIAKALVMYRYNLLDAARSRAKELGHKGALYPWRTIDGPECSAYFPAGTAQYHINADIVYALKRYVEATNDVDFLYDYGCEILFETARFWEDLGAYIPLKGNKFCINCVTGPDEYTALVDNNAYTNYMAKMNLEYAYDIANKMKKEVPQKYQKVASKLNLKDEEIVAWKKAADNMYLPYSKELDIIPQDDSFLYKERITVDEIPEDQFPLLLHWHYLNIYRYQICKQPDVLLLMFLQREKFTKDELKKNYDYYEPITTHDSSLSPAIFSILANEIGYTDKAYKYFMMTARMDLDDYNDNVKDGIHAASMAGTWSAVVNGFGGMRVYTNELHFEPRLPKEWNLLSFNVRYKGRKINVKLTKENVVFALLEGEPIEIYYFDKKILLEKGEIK
# Experiment: Substrate specificity for saccharide-hydrolyzing reaction by trehalose phosphorylase (TLC)
# Assay type: biochemical, Thermoanaerobium brockii
# Parameters: key: +: Hydrolyzed by the action of the present trehalose phosphorylase.; -: Not hydrolyzed by the action of the present trehalose phosphorylase
# Details: saccharide 2 w/v %, 10 units/g saccharide purified enzyme, 5 mM disodium hydrogenphosphate, 60° C., pH 7.0, 24 hours
# Method: An aqueous solution of a saccharide selected from D-glucose, maltose, sucrose, lactose, trehalose, neotrehalose, cellobiose, melibiose, kojibiose, isomaltose, sophorose, gentibiose, nigerose, laminaribiose, maltopentaose, and 4-O-α-D-glucosyltrehalose was mixed with 10 units/g saccharide, d.s.b., of a purified trehalose phosphorylase obtained by the method in Experiment 2, and incubated in the presence of 5 mM disodium hydrogenphosphate at 60° C. and pH 7.0 for 24 hours. The saccharide concentration of each reaction solution was 2 w/v %. Pre-reaction solutions and post-reaction mixtures were subjected to thin layer chromatography (hereinafter abbreviated as "TLC") using "KIESELGEL 60 (20×20 cm)", an aluminum plate for TLC commercialized by Merck & Co., Inc., Rahway, USA. Samples were developed once at ambient temperature on the plate using 1-butanol/pyridine/water (=7:3:1 by volume) as a developing solvent system, and the plate was sprayed with 20 v/v % sulfuric acid/methanol solution, and heated at 110° C. for about 10 min for coloration. Comparing spots of the solutions and mixtures detected on the plates, it was checked whether the enzyme acted on the saccharides.
row,SMILES,Decomposition
1,OC[C@H]1O[C@H](O[C@H]2[C@H](O)[C@@H](CO)OC(O)[C@@H]2O)[C@H](O)[C@@H](O)[C@@H]1O (stereo partly shown) [Nigerose],-
2,OC[C@H]1O[C@@H](O[C@H]2C(O)O[C@H](CO)[C@@H](O)[C@@H]2O)[C@H](O)[C@@H](O)[C@@H]1O (stereo partly shown) [Sophorose],-
3,OC[C@H]1O[C@H](O[C@H]2O[C@H](CO)[C@@H](O)[C@H](O)[C@H]2O)[C@H](O)[C@@H](O)[C@@H]1O [Trehalose],+

# Other lines, results leading:
row,Decomposition,SMILES
1,-,OC[C@H]1O[C@H](OC[C@H]2OC(O)[C@H](O)[C@@H](O)[C@@H]2O)[C@H](O)[C@@H](O)[C@H]1O (stereo partly shown) [Melibiose]
2,-,OC[C@H]1O[C@@H](O[C@H]2O[C@H](CO)[C@@H](O)[C@H](O)[C@H]2O)[C@H](O)[C@@H](O)[C@@H]1O [Neotrehalose]
3,-,OC[C@H]1O[C@@](CO)(O[C@H]2O[C@H](CO)[C@@H](O)[C@H](O)[C@H]2O)[C@@H](O)[C@@H]1O [Sucrose]

# Biological target: T1, trehalose phosphorylase
# Experiment: Trehalose phosphorylase activity assay: inhibition and activation by added substances
# Assay type: biochemical, Thermoanaerobium brockii
# Details: one mM
# Method: The present trehalose phosphorylase activity is assayed as follows: Add 0.2 ml of an enzyme solution to 2 ml of 20 mM phosphate buffer (pH 7.0) containing 1.0 w/v % trehalose as a substrate, incubate the solution at 60° C. for 30 min, sample the reaction mixture in an amount of 0.5 ml, and incubate the sample at 100° C. for 10 min to suspend the enzymatic reaction. Add 0.5 ml of D-glucose oxidase/peroxidase reagent to the heated sample, stir the mixture, keep the mixture at 40° C. for 30 min, add 2.5 ml of 5-N hydrochloric acid, stir the resulting mixture, and measure the absorbance of the mixture at a wavelength of 525 nm. One unit of the enzyme activity is defined as the enzyme that forms one […] of D-glucose per one minute. The activity of maltose- and kojibiose-phosphorylases can be assayed similarly as the same assay as indicated above except that the trehalose as a substrate is respectively replaced with maltose and kojibiose.
# Influences of temperatures and pHs on the present trehalose phosphorylase activity were studied in accordance with the assay for enzyme activity. To study the influence of temperatures, the enzyme was reacted at temperatures of about 50-85° C. in place of 60° C. as used in the enzyme assay. In the case of studying the influence of pHs, the enzyme was reacted at pHs of about 4-9 in place of the buffer's pH as used in the assay for the enzyme activity. In both cases, the enzymatic reactions were suspended similarly as in the enzyme assay, followed by quantifying the formed glucose. […] The thermal stability of the enzyme was determined by incubating the enzyme dissolved in 10 mM phosphate buffer (pH 7.0) at a temperature of about 40-85° C. for one hour, cooling the incubated enzyme, and assaying for the residual enzyme activity according to the enzyme assay. The pH stability of the enzyme was determined by dissolving the enzyme in buffers with different pHs of about 4-10, keeping each enzyme solution at 4° C. for 24 hours, adjusting each solution to give a pH of 7.0, and assaying for the residual enzyme activity according to the enzyme assay. […] The enzyme activity was inhibited by one mM Cu^++, Pb^++, Zn^++, Hg^++, Mg^++, or Mn^++.
Activation and stabilization of the enzyme,SMILES,Enzyme activity inhibition
Activated,O[C@H](CS)[C@H](O)CS (racemic) [dithiothreitol],
,[Cu+2] [Cu^++],inhibited
,[Hg+2] [Hg^++],inhibited
,[Mg+2] [Mg^++],inhibited
,[Mn+2] [Mn^++],inhibited
,[Pb+2] [Pb^++],inhibited
,[Zn+2] [Zn^++],inhibited

# — US5993889A, “Trehalose phosphorylase, its preparation and use” (Kabushiki Kaisha Hayashibara Seibutsu Kagaku Kenkyujo, priority 1996, dated 1999)
